Assay [1] relates to PBL from HLA-A2 positive cancer patients (breast cancer, melanoma, renal cell carcinoma). The assay can be described thus: IFN-γ ELISPOT after one in vitro peptide stimulation, cancer patients. It counts as cell-based, human. The conditions noted are these: HLA-A2 positive late stage cancer patients; PBL stimulated once with peptide in vitro. As to the method: (§1) To extend the sensitivity of the enzyme-linked immunospot (ELISPOT) assay, PBL were stimulated once in vitro with peptide prior to analysis^34. At day 0, PBL were thawed and plated in 2 ml/well at a concentration of 2×10^6 cells in 24-well plates (Nunc) in X-vivo medium (BioWhittaker) with 5% heat-inactivated human serum in the presence of 10 μM peptide (GenScript). One day later 40 IU/ml recombinant interleukin-2 (IL-2) (PeproTech) was added to the cultures. The cultured cells were tested in the IFN-γ ELISPOT assay on day 8.
(§2) The ELISPOT assay was used to quantify peptide epitope-specific INF-γ releasing effector cells as described previously^17. In some experiments PBMC were stimulated once in vitro with peptide prior to analysis as described^(34) to extend the sensitivity of the assay. Briefly, nitrocellulose bottomed 96-well plates (MultiScreen MAIP N45; Millipore) were coated with anti-IFN-γ Ab (1-D1K; Mabtech). The wells were washed, blocked by X-vivo medium and the effector cells were added in duplicates at different cell concentrations, with or without 10 μM peptide. The plates were incubated overnight. The following day, medium was discarded and the wells were washed prior to addition of biotinylated secondary Ab (7-B6-1-Biotin; Mabtech). The plates were incubated at room temperature (RD for 2 h, washed, and Avidin-enzyme conjugate (AP-Avidin; Calbiochem/Invitrogen Life Technologies) was added to each well. Plates were incubated at RT for 1 h and the enzyme substrate NBT/BCIP (Invitrogen Life Technologies) was added to each well and incubated at RT for 5-10 min. Upon the emergence of dark purple spots, the reaction was terminated by washing with tap water. The spots were counted using the ImmunoSpot Series 2.0 Analyzer (CTL Analyzers) and the peptide-specific CTL frequency could be calculated from the numbers of spot-forming cells.
(§3) Eleven IDO-derived peptides were selected using algorithms based on the main HLA-A2 specific anchor residues and subsequently synthesized^16. […]

The target in assay [2] is T1, HLA-A2 (Homo sapiens, UniProt P04439, D140Y/D185E/D98H/E176V/E277Q/G131W/G231S/I119V/I121R/I166T/I218V/L300P/L318F/N151K/N90K/P208A/P217A/Q86G/Q94H/R138H/R169H/T345S).
T1 construct: empty HLA-molecules released upon cell lysis, from the TAP-deficient cell line T2; endogenous in cells; host or cells: T2 (TAP-deficient human cell line), cell lysate
The assay can be described thus: Assembly assay for peptide binding to MHC class I molecules. The settings on record: recovery of HLA-A2 at 100, 10, 1 and 0.1 μM peptide. Here is the method:
The binding affinity of the synthetic peptides (Genscript) to HLA-A2 molecules, metabolically labelled with [35^S]-methionine, was measured in the assembly assay, as described previously^33. The assay is based on peptide-mediated stabilization of empty HLA-molecules released upon cell lysis, from the TAP-deficient cell line T2. Stably folded HLA-molecules were immune-precipitated by using the HLA class-I specific, conformation dependent monoclonal (mAb) W6/32 and separated by isoelectric focusing (IEF) gel electrophoresis. Major histocompatibility complex (MHC) heavy-chain bands were quantified using the ImageGauge Phosphoimager program (FUJI Photo Film, Carrolton, TX). The intensity of the band is directly related to the amount of peptide-bound class I MHC complex recovering during the assay. The recovery of HLA-A2 was measured in presence of 100, 10, 1, and 0.1 μM of the relevant peptide. The C50 value was calculated for each peptide as the peptide concentration sufficient for half maximal stabilization.

The subject of the next assay is CD8+ T cells in PBL. The assay can be described thus: HLA-A2/IDO5 tetramer flow cytometry of PBL. It counts as cell-based, human. The settings on record: for average frequency of IDO reactive cells of total CD8+ T cells: after in vitro stimulation. From the text:
(§4) For tetramer stainings, PBL from cancer patients and healthy donors as well as TIL from cancer patients were stimulated once in vitro with peptide, or analysed directly ex vivo. The CD8 cells were isolated from PBL using the Dynal CD8 negative isolation kit (Dynal Biotech) at day 7. The resulting T cell cultures were stained with PE coupled tetramer, followed by antibody staining with the flourochrome-coupled mAbs: CD8-allophycocyanin/APC-Cy7, CD3-FITC, […], CD45RO-FITC, CD45RA-PE-Cy5 and CD28-allophycocyanin (BD Immunocytometry Systems). Tetramer stainings were performed in PBS+2% FCS, for 15 min, RT, in the dark, whereas antibody stainings were performed in PBS+2% FCS, 4° C., in the dark. The MHC tetramer complexes used were: HLA-A2/IDO5 (ALLEIASCL (SEQ ID NO: 20)) and HLA-A2/HIV-1 pol476-484 ([…] (SEQ ID NO: 18)). The samples were analyzed on BD FACS aria, using DIVA software (BD Biosciences).

Assay [3] concerns PBL from healthy individuals. The assay can be described thus: IFN-γ ELISPOT after one in vitro peptide stimulation, healthy individuals. In kind it is cell-based, human. Here is the method: as §1, §2, §3
The test system of assay [4] is TIL cultures from HLA-A2+ melanoma and head and neck cancer patients. The assay can be described thus: HLA-A2/IDO5 tetramer staining of IL-2 treated TIL cultures. In kind it is cell-based, human. The conditions noted are these: tetramer stainings.
Excerpt: as §4

The next assay has as its system IDO. The assay can be described thus: Intracellular IDO staining by flow cytometry. It counts as cell-based, human. From the text: Cancer cell lines and DC were examined for expression of IDO using flow cytometry. After fixation and permeabilization (Cytofix/Cytoperm, BD), cells were stained with mouse anti-IDO antibody (Millipore Corporation) followed by FITC-labeled anti-mouse secondary antibody (DAKO). For all experiments, a negative control only stained with the FITC-coupled secondary antibody was included, to determine the background fluorescence from falsely attached secondary antibodyE and auto-fluorescence. The IDO expression was determined using the staining index defined as MFIpositive−MFIbackground/2×SDbackground where MFI is mean fluorescence intensity. Cells were defined IDO positive if the staining index>1^21.
(In flow cytometry, cells or beads pass a laser one at a time.)

Assay [5] deals with HLA-A2. The assay can be described thus: HLA-A2 expression by flow cytometry. It counts as cell-based, human. The conditions noted are these: CAMA-1+IFN-γ treatment (untreated 43.7). Here is the method: Cancer cells were examined for HLA-A2 expression using flow cytometry. Cells were stained with a fluorochrome-coupled HLA-A2 mAb (BD Bioscience). For comparison, cells were stained with an isotype matched control. The samples were analyzed on BD FACS aria, using DIVA software (BD Biosciences). Assuming normality, HLA-A2 expression was given by a one-tailed two sampled T-test comparing MFIHLA-A2 and MFIIsotype control, where MFI is the Mean Fluorescence 9 Intensity. For p-values<0.05 (significance level) cells were defined HLA-A2+. The fold of expression was defined as MFIHLA-A2/MFIIsotype control.

Regarding “ALLEIASCL (listed as Homo sapiens) [IDO5]”, the “ELISPOT responses in PBL of cancer patients” value (“ELISPOT responses in PBL” for short) in assay [1] is reported as “ELISPOT responses were detected”. For the same substance, the “binding affinity to HLA-A2 compared with the high affinity positive control epitope HIV-1 pol476-484” value with HLA-A2 [2] is “bound HLA-A2 even better than the high-affinity control epitope”. Further, the “average frequency of IDO reactive cells of total CD8+ T cells” value in the assay on CD8+ T cells in PBL (7 HLA-A2 positive healthy donors) stood at 0.001%; with CD8+ T cells in PBL (11 HLA-A2 positive cancer patients), 0.03%. In the assay on CD8+ T cells in PBL (tetramer staining, healthy donors), the “detection of IDO-reactive T cells in healthy donors” value is recorded as “No IDO-reactive T cells could be detected”. The “spontaneous ELISPOT responses in healthy controls” value (shortened to “spontaneous ELISPOT responses”) in assay [3] is reported as “No spontaneous responses could be detected”. In assay [4], the “analyzed patients with detectable IDO5-specific T cells among TIL” value is given as 4 of the 5.

As to “FLVSLLVEI (listed as Homo sapiens) [IDO2]”, the “ELISPOT responses in PBL” value in assay [1] was “ELISPOT responses were detected”. Further, the “spontaneous ELISPOT responses” value in assay [3] is recorded as “No spontaneous responses could be detected”.

In the assay with IDO (CAMA-1+IFN-γ (untreated CAMA-1 1.3), IDO positive if index>1), “IFN-γ: cytokine used to treat cancer cells, 100 U/ml for 2 days” showed an IDO staining index of 1.8. For the same substance, in the assay with IDO (CAMA-1+IFN-γ treatment (untreated 2.3)), the MFIIDO/MFIIsotype control came out at 3.5. Besides, the “expression of IDO in CAMA-1 and MDA-MB-231 after treatment” value with IDO (both cell lines) was “increased the expression of IDO”. Further, in the assay on HLA-A2 [5], the “HLA-A2 expression, fold over isotype control” value worked out at 141.2.

In the case of “VLSKGDGL (VLSKGDAGL; listed as Homo sapiens) [IDO6]”, in assay [1], the “ELISPOT responses in PBL” value is on record as “ELISPOT responses were detected”. In assay [3], the “spontaneous ELISPOT responses” value was “No spontaneous responses could be detected”.

For the origin of these results see US12233103B2, “Indoleamine 2,3-dioxygenase based immunotherapy” (IO BIOTECH APS, priority 2008, dated 2025).
